Results: PubChem BioAssay AID179 (DTP/NCI, 2004)
Several values for one entry are separate records, joined by “and”; a condition that tells them apart may be missing. Equal entries are not always repeated. Activity calls are given as the source filed them.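 The calls were made as follows: active = compounds giving half or more protection of infected cells from virus-caused growth loss, again on retest; inactive = the rest.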

Test system: CEM cells HIV-1 protection, formazan growth assay
Assay: NCI AIDS Antiviral Assay
Conditions: for IC50: measured here: growth of uninfected CEM cells
Outline: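 Five concentrations of each compound were applied to infected and uninfected human CEM cells. Protection from HIV-1 was judged from growth measured with a soluble formazan assay.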

Structure (SMILES)	EC50	IC50	outcome
CC(C)S(=O)(=O)O	> 200 µM	> 200 µM	–
CN1CCC23c4ccccc4NC1C21CCN(C)C3Nc2ccccc21	> 724 µM	617 µM	–
CCOC(=O)Cn1c2ccc(Br)cc2c2nc3ccccc3nc21	> 100 µM	> 100 µM	–
CN(C)CCC(O)(Cc1ccccc1)c1cccc(Cl)c1 (configuration not stated)	> 200 µM	87.1 µM	–
O=C1CCC2CCc3cccc4oc1c2c34 (configuration not stated)	–	–	inactive
CC(C)(C)c1cc(-c2c3nc(c(-c4cc(C(C)(C)C)cc(C(C)(C)C)c4)c4ccc([nH]4)c(-c4cc(C(C)(C)C)cc(C(C)(C)C)c4)c4nc(c(-c5cc(C(C)(C)C)cc(C(C)(C)C)c5)c5ccc2[nH]5)C=C4)C=C3)cc(C(C)(C)C)c1	> 33.9 µM	> 33.9 µM	–
CC1c2c(cc(=O)n(C)c2O)C(=O)N1C (configuration not stated)	288 µM	457 µM	–
O=C1N[Se](=O)c2ccccc21 (configuration not stated)	2.69 µM	22.9 µM	–
N#CC(N)(C(=O)C(=O)NCCCNC(=O)C(=O)C(N)(C#N)c1ccc(Cl)cc1)c1ccc(Cl)cc1 (configuration not stated)	> 174 µM	> 174 µM	–
COC(=O)c1c(-c2ccccc2)c(-c2ccccc2)[nH]c(=O)c1C#N	> 200 µM	> 200 µM	–
O=S(=O)(c1ccc(N=C=S)cc1)N1CCCCC1	> 200 µM	97.7 µM	–
CC1=CN(c2ccccc2)S2=C1c1sc3c(c1N2c1ccc(Br)cc1)CCCC3 (configuration not stated)	> 200 µM	> 200 µM	–
CC(=O)Oc1ccc(N2C(=O)C3c4[nH]c5ccccc5c4C4CCC(C(C)(C)C)CC4C3C2=O)cc1 (configuration not stated)	> 200 µM	9.77 µM	–
C=CC1(c2ccc(Br)cc2)OCCCO1	> 200 µM	> 200 µM	–
CC1(C)O[C@@H]2C[C@H]3[C@@H]4C[C@H](F)C5=CC(=O)C=C[C@]5(C)[C@@]4(F)[C@@H](O)C[C@]3(C)[C@]2(C(=O)CO)O1	> 2 µM	0.00741 µM	–
COc1cc(/C=C/C(=O)c2ccccc2)cc(OC)c1OC	> 87.1 µM	20.4 µM	–
CC1(C)N=C(C(N)=O)c2ncn(N)c2N1	> 200 µM	> 200 µM	–
Cc1ccc(S(=O)(=O)OC(c2ccc(Cl)cc2Cl)C2OC(=O)c3ccccc32)cc1 (configuration not stated)	> 40.7 µM	> 40.7 µM	–
O=c1[nH]nc(Cl)c2c(O)c3ccccc3c(O)c12	> 67.6 µM	32.4 µM	–
Cc1cn(C2CC(O[Si](C)(C)C(C)(C)C)C(CN(OC(=O)Oc3ccccc3)C(=O)Oc3ccccc3)O2)c(=O)[nH]c1=O (configuration not stated)	> 200 µM	10.2 µM	–
COCCOCCOCCOCCOCCOCCOCCOCCOCCOCCOCCOCCOCCOCCOCCOCCOCC(=O)N(CCn1ccc(NC(c2ccccc2)(c2ccccc2)c2ccccc2)nc1=O)CCn1ccc(NC(c2ccccc2)(c2ccccc2)c2ccccc2)nc1=O	20 µM	22.9 µM	–

Structure (SMILES)	EC50	IC50	outcome
O=C1/C(=C/c2ccccc2)Oc2cc(O)ccc21	> 200 µM	110 µM	–
COc1ccc(/C=C2/C(=O)N(C(=O)c3ccccc3O)N=C2C)cc1	> 56.2 µM	0.0501 µM	–
Cc1ccc(NC(=O)/C(=N/NC(=O)CC#N)C2C(=O)N(c3ccccc3)N=C2N)cc1C (configuration not stated)	> 219 µM	37.2 µM	–
O=C1OC2(OC2c2ccc(Cl)cc2)c2ccccc21 (configuration not stated)	> 69.2 µM	> 69.2 µM	–
C=CCC[P+](c1ccccc1)(c1ccccc1)c1ccccc1	> 200 µM	2.24 µM	–
COC(=O)c1cc(C(=CCCN)c2cc(Cl)c(OC)c(C(=O)OC)c2)cc(Cl)c1OC	> 200 µM	8.71 µM	–
O=c1[nH]c2cc(Cl)ccc2nc1/C(=N/Nc1ccccc1)C(O)c1ccco1 (configuration not stated)	> 575 µM	> 575 µM	–
COc1ccc(C2CC(=O)CC(c3ccc(OC)cc3)C23C(=O)NC(=S)NC3=O)cc1 (configuration not stated)	> 100 µM	> 100 µM	–
COC(=O)C1C(O)C(C)C(O)C(C)/C=C\C=C(C)C(=O)Nc2c(C)c(OC(C)=O)c3c(c2O)C(=O)C(C)=C2OCOC(=C23)C(C)=CC(C)(O)C(O)C(C)C1O (configuration not stated)	> 324 µM	117 µM and 162 µM	–
O=C(Cc1ccccc1)NN1C(=O)C(Cl)C1c1ccccc1O (configuration not stated)	> 77.6 µM	24.5 µM	–
Cc1ccc(C(=O)C2=CN=C3C(=O)N(c4ccccc4)N(C)C3(C)C2=N)cc1 (configuration not stated)	> 200 µM	> 200 µM	–
COc1c(Cl)cc(C(=O)c2cc(Cl)c(OC)c(C(=O)O)c2)cc1C(=O)O	> 912 µM	> 912 µM	–
Cc1cc(NS(=O)(=O)c2ccc(Nc3c4ccccc4nc4c(C(=O)NCCN(C)C)cccc34)cc2)no1	–	–	inactive
COc1c2c3c(ccnc3c3ccccc13)C(=O)N2C	> 200 µM	9.55 µM	–
COc1cc(Cl)c2c3c(c(C(C)=O)oc13)CCC2	–	–	inactive
CNC1C(O)CC(OC2C/C=C(\C)C/C(C)=C/C=C/CCC(C)CNC(=O)/C=C/C=C/C2C)OC1C (configuration not stated)	> 37.2 µM	1.95 µM	–
CC(NCCCCNC(C)C(=O)O)C(=O)O (configuration not stated)	> 631 µM	> 631 µM	–
COC(=O)c1nc(NC#N)[nH]c(=O)c1C	> 34.7 µM	> 34.7 µM	–
CC(=O)N(C(C)=O)c1ncc(-n2nc(-c3ccccc3)cc2-c2ccccc2)c(-c2ccccc2)n1	> 200 µM	115 µM	–
O=C1CCCCC1C(O)(C(F)(F)F)C(F)(F)Cl (configuration not stated)	> 200 µM	85.1 µM	–
CC(C)N(/C(F)=N\C(=O)Nc1ccccc1C(F)(F)F)C(C)C	> 200 µM	38.9 µM	–

Structure (SMILES)	EC50	IC50	outcome
COC(=O)/C(=N\Nc1nnc(C)n1N)C(C#N)c1ccc(Cl)cc1 (configuration not stated)	> 724 µM	372 µM	–
O=c1cc/c(=N/O)c(=O)/c1=N\O	17.4 µM	151 µM	–
CCN(CCCl)c1cc(CN(C)C)cc(NC(=O)c2ccc(C(=O)Nc3cc(CN(C)C)cc(N(CC)CCCl)c3)cc2)c1	> 2 µM	0.000631 µM	–
O=C1CC2C=C(S(=O)(=O)c3ccccc3)C1N(Cc1ccccc1)C2=O (configuration not stated)	–	–	inactive
COC(=O)C1=C(CS(=O)c2ccc([N+](=O)[O-])cc2[N+](=O)[O-])ON(C)C1c1ccccc1 (configuration not stated)	–	–	inactive
COc1c(Cl)cc(Cl)cc1S(=O)O	–	–	inactive
O=[N+]([O-])c1cccc[c]1[Sb](=[O])([OH])[OH]	> 200 µM	7.41 µM	–
Cc1ccc(S(=O)(=O)N2CC3(CN(S(=O)(=O)c4ccc(C)cc4)CC4(C2)OCCO4)OCCO3)cc1	> 200 µM	85.1 µM	–
COc1ccc2c(c1)CC[C@@H]1[C@@H]2CC[C@]2(C)[C@H](O)[C@H](O)C[C@@H]12	> 200 µM	32.4 µM	–
COc1cc2cc(C(=O)N3CC(CCl)c4c3cc([N+](=O)[O-])c3ccccc43)[nH]c2c(OC)c1OC (configuration not stated)	> 10 µM	2.4 µM	–
CC(=O)Nc1ccc(-c2nnc(SCC(=O)Nc3cccc([N+](=O)[O-])c3)o2)cc1	> 45.7 µM	7.76 µM	–
Cc1c(CCO)c(=O)n2n1CCCC2	> 200 µM	> 200 µM	–
CC(=O)NNC(=S)N/C=C(\C#N)S(=O)(=O)c1ccc(C)cc1	–	–	inactive
COc1cc(C=Nc2ccc(Oc3ccc(Cl)cc3)c(Cl)c2)cc(OC)c1OC	> 200 µM	30.9 µM	–
COC1OC(COCc2ccc(Cl)cc2)C(OCc2ccc(Cl)cc2)C1O (configuration not stated)	–	–	inactive
C=CCC(C)C(=O)CP1(=O)OC(C)CCN1C(C)(C)C (configuration not stated)	–	–	inactive
COC(=O)C(C)Sc1nc2cc(Cl)ccc2s1 (configuration not stated)	> 200 µM	174 µM	–
O=C(C[P+](c1ccccc1)(c1ccccc1)c1ccccc1)C[P+](c1ccccc1)(c1ccccc1)c1ccccc1	> 200 µM	0.759 µM	–
CC1(C)O[C@@H](C[C@]2(C#N)C[C@H](CCl)OC(C)(C)O2)C[C@@H](C#N)O1	–	> 200 µM	inactive
O=C1c2ccccc2C2(c3ccc(Cl)cc3)NCc3ccccc3CN12 (configuration not stated)	> 200 µM	12.9 µM	–
COc1c(C)c(C/C=C(\C)CC/C=C(\C)CCC=C(C)C)c(OC)c(OC)c1OC	> 200 µM	> 200 µM	–

Structure (SMILES)	EC50	IC50	outcome
O=C1/C(=C/c2ccccc2)CCCC/C1=C\c1ccccc1	> 6.92 µM	> 6.92 µM	–
COc1ccc(/C=N/Nc2nnc3c4ccccc4c4ncccc4c3n2)cc1	> 501 µM	> 501 µM	–
Cc1ccc(NC(=O)CC(=O)n2nc(-c3ccccc3)c(N=Nc3ccccc3[N+](=O)[O-])c2-c2ccccc2)cc1	> 25.1 µM	> 25.1 µM	–
CC1=NN2C(=N)/C(=C/c3ccc(F)cc3)C(=O)N=C2S1	> 200 µM	> 200 µM	–
Cc1ccc(OCC2OC(n3cnc4c(Br)nc(Br)nc43)CC2Oc2ccc(C)cc2)cc1 (configuration not stated)	> 200 µM	2.09 µM	–
COc1ccc(/C=c2/sc3n(c2=O)NC(c2ccc(Cl)cc2)NN=3)cc1 (configuration not stated)	–	–	inactive
CS(=O)(=O)Nc1ccc2ccccc2c1-c1c(NS(C)(=O)=O)ccc2ccccc12	> 50.1 µM	47.9 µM	–
O=C(NCCO)c1ccc[c]([Sb](=[O])([OH])[OH])c1	23.4 µM	398 µM	–
CN(C)c1ccc(/C=C(\C#N)C(=O)O)cc1	> 437 µM	219 µM	–
COc1cc(C)cc2c(-c3c(O)cc(O)c4c3CC(C)N[C@H]4C)cc(-c3cc(-c4c(O)cc(O)c5c4CC(C)N[C@H]5C)c4cc(C)cc(OC)c4c3O)c(O)c12 (some centres not stated)	38 µM	166 µM	–
Cc1ccc(C(=O)n2nc(C)c(N=Nc3ccccc3)c2C)cc1	–	–	inactive
COc1ccc2c(=O)c(C)c(-c3ccccc3)oc2c1CN(C)C	–	–	inactive
O=C1c2cn[nH]c2C(c2ccccc2)N1c1ccccc1 (configuration not stated)	–	–	inactive
C=CC[C@@H]1C(=O)[C@@]2(O[Si](C(C)C)(C(C)C)C(C)C)CC[C@@H]1C[C@H]2NC(=O)OCC(Cl)(Cl)Cl	> 200 µM	> 200 µM	–
C(=C\c1ccccc1)/c1ccccc1	> 200 µM	> 200 µM	–
N#Cc1ccc(/C=C2\Cc3ccccc3C2=O)cc1	> 200 µM	> 200 µM	–
COc1ccc(C2CCc3cc4c(cc3/C2=N/OC(C)=O)OCO4)cc1OC (configuration not stated)	–	–	inactive
CC(=O)O[C@]1(C)CCC2C(C)C(=O)OC2C2C(C)[C@@H](O)CC21 (some centres not stated)	> 200 µM	34.7 µM	–
C=CCCCCOCOCCOC	> 138 µM	> 138 µM	–
Cc1cc(CN(Cc2ccccc2)Cc2nc3ccccc3[nH]2)c(O)c(CN(Cc2nc3ccccc3[nH]2)Cc2nc3ccccc3[nH]2)c1	> 200 µM	24.5 µM	–
